Where two headings read alike, the source gives them in different places. Numbered stars: 1 amine (or outer) side, 2 acyl side, 3 side chain; on linkers, the order of the positions; unused ones are H or OH. Square brackets hold non-standard residues; d marks the D form. Side chains are listed from the residue outwards. Peptide text beside a SMILES is read from it. * marks the point of attachment. γGlu = O=C(O)[C@H](CCC(=O)[*:2])N[*:1]; Stearoyl = CCCCCCCCCCCCCCCCCC(=O)*; AEEA = NCCOCCOCC(=O)O; Aib = CC(C)(N)C(=O)O
Experiments:
Type in all cases: cell-based
[1] = target: T1, human GCG R (Homo sapiens, UniProt P47871); test: cAMP induction in HEK293 cells expressing human GCG R (AlphaScreen cAMP kit)
T1 construct: expressed in transfected cells

[2] = target: T2, human GLP-1 R (Homo sapiens, UniProt P43220); test: cAMP induction in HEK293 cells expressing human GLP-1 R (AlphaScreen cAMP kit); conditions: average EC50, cAMP, HEK293 cells expressing human GLP-1 R, read-out: GLP1 R (EC50 in nM)
T2 construct: expressed in transfected cells

[3] = target: T3, human GIP R (Homo sapiens, UniProt P48546); test: cAMP induction in HEK293 cells expressing human GIP R (AlphaScreen cAMP kit)
T3 construct: expressed in transfected cells
T3 sequence (P48546 22-466): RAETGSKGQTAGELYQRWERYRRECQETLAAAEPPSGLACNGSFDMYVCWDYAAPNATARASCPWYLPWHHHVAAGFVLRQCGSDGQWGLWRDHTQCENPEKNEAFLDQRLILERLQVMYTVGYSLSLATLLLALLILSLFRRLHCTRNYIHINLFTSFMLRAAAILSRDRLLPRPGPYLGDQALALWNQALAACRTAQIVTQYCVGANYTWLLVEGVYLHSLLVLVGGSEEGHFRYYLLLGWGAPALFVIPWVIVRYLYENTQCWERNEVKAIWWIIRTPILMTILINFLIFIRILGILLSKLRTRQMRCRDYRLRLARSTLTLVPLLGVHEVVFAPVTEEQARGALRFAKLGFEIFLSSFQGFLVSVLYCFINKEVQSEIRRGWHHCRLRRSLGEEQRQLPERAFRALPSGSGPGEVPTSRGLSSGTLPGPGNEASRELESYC

[4] = Table 2, average EC50, cAMP, HEK293 cells expressing human GCG R, read-out: GCG R (EC50 in nM)
[5] = Table 2, average EC50, cAMP, read-out: GIP R (EC50 in nM)
[6] = Table 2b (most comprehensive data)
[7] = GIP R (EC50 in nM), Table 2, average EC50, cAMP
[8] = GIP R (EC50 in nM), Table 2b (most comprehensive data), average EC50, cAMP

T2 sequence (P43220 24-463): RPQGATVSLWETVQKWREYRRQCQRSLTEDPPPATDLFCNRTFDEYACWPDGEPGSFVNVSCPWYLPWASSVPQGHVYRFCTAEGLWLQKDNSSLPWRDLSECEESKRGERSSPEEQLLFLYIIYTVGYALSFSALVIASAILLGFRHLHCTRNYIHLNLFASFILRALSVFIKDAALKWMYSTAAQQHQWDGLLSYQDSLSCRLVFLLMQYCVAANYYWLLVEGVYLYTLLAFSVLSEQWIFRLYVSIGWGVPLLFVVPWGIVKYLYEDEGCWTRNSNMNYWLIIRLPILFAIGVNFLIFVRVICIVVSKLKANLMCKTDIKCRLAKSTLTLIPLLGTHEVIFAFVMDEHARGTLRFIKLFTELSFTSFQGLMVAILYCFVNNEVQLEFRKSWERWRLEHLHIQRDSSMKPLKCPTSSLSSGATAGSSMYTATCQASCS
T1 sequence (P47871 26-477): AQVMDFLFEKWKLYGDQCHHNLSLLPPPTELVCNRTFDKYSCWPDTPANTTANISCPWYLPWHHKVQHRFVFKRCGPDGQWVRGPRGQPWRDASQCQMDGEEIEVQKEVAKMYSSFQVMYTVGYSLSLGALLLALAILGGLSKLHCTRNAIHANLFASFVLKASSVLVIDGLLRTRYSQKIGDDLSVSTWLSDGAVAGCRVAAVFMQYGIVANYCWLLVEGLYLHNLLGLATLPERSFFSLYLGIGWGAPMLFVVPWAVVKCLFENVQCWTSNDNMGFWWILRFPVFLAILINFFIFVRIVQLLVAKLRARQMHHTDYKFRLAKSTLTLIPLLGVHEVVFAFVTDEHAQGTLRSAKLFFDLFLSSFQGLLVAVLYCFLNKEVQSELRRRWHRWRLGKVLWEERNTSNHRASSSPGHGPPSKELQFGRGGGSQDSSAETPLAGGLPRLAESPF

SMILES	EC50 [1, 4] [nM]	EC50 ([2]; Table 2) [nM]	EC50 [3, 5] [nM]	EC50 ([3]; Table 2b (most comprehensive data), average EC50, cAMP, read-out: GIP R (EC50 in nM)) [nM]	EC50 [1] [nM]	EC50 [2, 6] [nM]	EC50 [3, 7] [nM]	EC50 [3, 8] [nM]
CC[C@H](C)[C@H](NC(=O)[C@H](CO)NC(=O)[C@H](Cc1ccc(O)cc1)NC(=O)[C@H](CC(=O)O)NC(=O)[C@H](CO)NC(=O)[C@@H](NC(=O)[C@H](Cc1ccccc1)NC(=O)[C@@H](NC(=O)CNC(=O)[C@H](CCC(N)=O)NC(=O)C(C)(C)NC(=O)[C@@H](N)Cc1ccc(O)cc1)[C@@H](C)O)[C@@H](C)O)C(=O)N[C@@H](Cc1ccc(O)cc1)C(=O)N[C@@H](CC(C)C)C(=O)N[C@@H](CC(=O)O)C(=O)N[C@@H](CO)C(=O)N[C@@H](CCCCN)C(=O)N[C@@H](C)C(=O)N[C@@H](C)C(=O)N[C@@H](Cc1c[nH]cn1)C(=O)N[C@@H](CC(=O)O)C(=O)N[C@@H](Cc1ccccc1)C(=O)N[C@H](C(=O)N[C@@H](CCC(=O)O)C(=O)N[C@@H](Cc1c[nH]c2ccccc12)C(=O)N[C@@H](CC(C)C)C(=O)N[C@@H](CC(C)C)C(=O)N[C@@H](CO)C(=O)N[C@@H](C)C(=O)NCC(=O)N1CCC[C@H]1C(=O)N[C@@H](CO)C(=O)N[C@@H](CO)C(=O)NCC(=O)N[C@@H](C)C(=O)N1CCC[C@H]1C(=O)N1CCC[C@H]1C(=O)N1CCC[C@H]1C(=O)N[C@@H](CO)C(N)=O)C(C)C [Compound 13] (HELM PEPTIDE1{Y.[Aib].Q.G.T.F.T.S.D.Y.S.I.Y.L.D.S.K.A.A.H.D.F.V.E.W.L.L.S.A.G.P.S.S.G.A.P.P.P.S.[am]}$$$$V2.0)	0.24	0.0099	0.083	0.01				
CC[C@H](C)[C@H](NC(=O)[C@H](CO)NC(=O)[C@H](Cc1ccc(O)cc1)NC(=O)[C@H](CC(=O)O)NC(=O)[C@H](CO)NC(=O)[C@@H](NC(=O)[C@H](Cc1ccccc1)NC(=O)[C@@H](NC(=O)CNC(=O)[C@H](CCC(N)=O)NC(=O)C(C)(C)NC(=O)[C@@H](N)Cc1ccc(O)cc1)[C@@H](C)O)[C@@H](C)O)C(=O)N[C@@H](Cc1ccc(O)cc1)C(=O)N[C@@H](CC(C)C)C(=O)N[C@@H](CC(=O)O)C(=O)N[C@@H](CO)C(=O)N[C@@H](CCCCN)C(=O)N[C@@H](C)C(=O)N[C@@H](C)C(=O)N[C@@H](Cc1c[nH]cn1)C(=O)N[C@@H](CC(=O)O)C(=O)N[C@@H](Cc1ccccc1)C(=O)N[C@H](C(=O)N[C@@H](CC(N)=O)C(=O)N[C@@H](Cc1c[nH]c2ccccc12)C(=O)N[C@@H](CC(C)C)C(=O)N[C@@H](CC(C)C)C(=O)N[C@@H](CO)C(=O)N[C@@H](C)C(N)=O)C(C)C [Compound 11] (HELM PEPTIDE1{Y.[Aib].Q.G.T.F.T.S.D.Y.S.I.Y.L.D.S.K.A.A.H.D.F.V.N.W.L.L.S.A.[am]}$$$$V2.0)		0.02			0.11	0.11	0.28	
CCCCCCCCCCCCCCCC(=O)N[C@@H](CCC(=O)NCCCC[C@H](NC(=O)[C@H](CCCCN)NC(=O)[C@H](CCC(=O)O)NC(=O)[C@H](CC(C)C)NC(=O)[C@H](Cc1ccc(O)cc1)NC(=O)[C@@H](NC(=O)[C@H](CO)NC(=O)[C@H](Cc1ccc(O)cc1)NC(=O)[C@H](CC(=O)O)NC(=O)[C@H](CO)NC(=O)[C@@H](NC(=O)[C@H](Cc1ccccc1)NC(=O)[C@@H](NC(=O)CNC(=O)[C@H](CCC(N)=O)NC(=O)C(C)(C)NC(=O)[C@@H](N)Cc1ccc(O)cc1)[C@@H](C)O)[C@@H](C)O)[C@@H](C)CC)C(=O)N[C@@H](C)C(=O)N[C@@H](C)C(=O)N[C@@H](CCCCN)C(=O)N[C@@H](CCC(=O)O)C(=O)N[C@@H](Cc1ccccc1)C(=O)N[C@H](C(=O)N[C@@H](CCC(=O)O)C(=O)N[C@@H](Cc1c[nH]c2ccccc12)C(=O)N[C@@H](CC(C)C)C(=O)N[C@@H](CC(C)C)C(=O)N[C@@H](CO)C(=O)N[C@@H](C)C(N)=O)C(C)C)C(=O)O [Compound 23] (HELM PEPTIDE1{Y.[Aib].Q.G.T.F.T.S.D.Y.S.I.Y.L.E.K.K.A.A.K.E.F.V.E.W.L.L.S.A.[am]}|PEPTIDE2{[CCCCCCCCCCCCCCCC(=O)[*:2]].[gGlu]}$PEPTIDE1,PEPTIDE2,17:R3-2:R2$$$V2.0)	0.14	0.11	0.13					
CC(C)C[C@H](NC(=O)[C@H](CC(C)C)NC(=O)[C@H](Cc1c[nH]c2ccccc12)NC(=O)[C@H](CCC(=O)O)NC(=O)[C@@H](NC(=O)[C@H](Cc1ccccc1)NC(=O)[C@H](CC(=O)O)NC(=O)[C@H](CCCNC(=N)N)NC(=O)[C@H](C)NC(=O)[C@H](C)NC(=O)[C@H](CCCCN)NC(=O)[C@H](CO)NC(=O)[C@H](CC(=O)O)NC(=O)[C@H](CC(C)C)NC(=O)[C@H](Cc1ccc(O)cc1)NC(=O)[C@H](CCCCN)NC(=O)[C@H](CO)NC(=O)[C@H](Cc1ccc(O)cc1)NC(=O)[C@H](CC(=O)O)NC(=O)[C@H](CO)NC(=O)[C@@H](NC(=O)[C@H](Cc1ccccc1)NC(=O)[C@@H](NC(=O)CNC(=O)[C@H](CCC(N)=O)NC(=O)C(C)(C)NC(=O)[C@@H](N)Cc1ccc(O)cc1)[C@@H](C)O)[C@@H](C)O)C(C)C)C(=O)N[C@@H](CO)C(=O)N[C@@H](C)C(N)=O [Compound 6] (HELM PEPTIDE1{Y.[Aib].Q.G.T.F.T.S.D.Y.S.K.Y.L.D.S.K.A.A.R.D.F.V.E.W.L.L.S.A.[am]}$$$$V2.0)		0.0095			0.018		0.34	0.01
CCCCCCCCCCCCCCCCCC(=O)N[C@@H](CCC(=O)NCCOCCOCC(=O)NCCOCCOCC(=O)NCCCC[C@H](NC(=O)[C@H](CCCCN)NC(=O)[C@H](CCC(=O)O)NC(=O)[C@H](CC(C)C)NC(=O)[C@H](C)NC(=O)[C@@H](NC(=O)[C@H](CO)NC(=O)[C@H](Cc1ccc(O)cc1)NC(=O)[C@H](CC(=O)O)NC(=O)[C@H](CO)NC(=O)[C@@H](NC(=O)[C@H](Cc1ccccc1)NC(=O)[C@@H](NC(=O)CNC(=O)[C@H](CCC(N)=O)NC(=O)C(C)(C)NC(=O)[C@@H](N)Cc1ccc(O)cc1)[C@@H](C)O)[C@@H](C)O)[C@@H](C)CC)C(=O)N[C@@H](C)C(=O)N[C@@H](CCC(N)=O)C(=O)N[C@@H](CCCNC(=N)N)C(=O)N[C@@H](C)C(=O)N[C@@H](Cc1ccccc1)C(=O)N[C@H](C(=O)N[C@@H](CCC(=O)O)C(=O)N[C@@H](Cc1c[nH]c2ccccc12)C(=O)N[C@@H](CC(C)C)C(=O)N[C@@H](CC(C)C)C(=O)N[C@@H](C)C(=O)N[C@@H](CCC(N)=O)C(=O)N[C@@H](CCCCN)C(N)=O)C(C)C)C(=O)O [Compound 46] (H-Y[Aib]QGTFTSDYSIALEKK([AEEA-AEEA-γGlu-Stearoyl])AQRAFVEWLLAQK-NH2)					0.13	0.16		0.011
CC(C)C[C@H](NC(=O)[C@H](CC(C)C)NC(=O)[C@H](Cc1c[nH]c2ccccc12)NC(=O)[C@H](CCC(=O)O)NC(=O)[C@@H](NC(=O)[C@H](Cc1ccccc1)NC(=O)[C@H](CC(=O)O)NC(=O)[C@H](Cc1c[nH]cn1)NC(=O)[C@H](C)NC(=O)[C@H](C)NC(=O)[C@H](CCCCN)NC(=O)[C@H](CO)NC(=O)[C@H](CCC(=O)O)NC(=O)[C@H](CC(C)C)NC(=O)[C@H](Cc1ccc(O)cc1)NC(=O)[C@H](CCCCN)NC(=O)[C@H](CO)NC(=O)[C@H](Cc1ccc(O)cc1)NC(=O)[C@H](CC(=O)O)NC(=O)[C@H](CO)NC(=O)[C@@H](NC(=O)[C@H](Cc1ccccc1)NC(=O)[C@@H](NC(=O)CNC(=O)[C@H](CCC(N)=O)NC(=O)C(C)(C)NC(=O)[C@@H](N)Cc1ccc(O)cc1)[C@@H](C)O)[C@@H](C)O)C(C)C)C(=O)N[C@@H](CO)C(=O)N[C@@H](C)C(N)=O [Compound 8] (HELM PEPTIDE1{Y.[Aib].Q.G.T.F.T.S.D.Y.S.K.Y.L.E.S.K.A.A.H.D.F.V.E.W.L.L.S.A.[am]}$$$$V2.0)		0.015			0.042		0.2	0.015
CC(C)C[C@H](NC(=O)[C@H](CC(C)C)NC(=O)[C@H](Cc1c[nH]c2ccccc12)NC(=O)[C@H](CCC(=O)O)NC(=O)[C@@H](NC(=O)[C@H](Cc1ccccc1)NC(=O)[C@H](CC(=O)O)NC(=O)[C@H](Cc1c[nH]cn1)NC(=O)[C@H](C)NC(=O)[C@H](C)NC(=O)[C@H](CCCCN)NC(=O)[C@H](CO)NC(=O)[C@H](CC(=O)O)NC(=O)[C@H](CC(C)C)NC(=O)[C@H](Cc1ccc(O)cc1)NC(=O)[C@H](CCCCN)NC(=O)[C@H](CO)NC(=O)[C@H](Cc1ccc(O)cc1)NC(=O)[C@H](CC(=O)O)NC(=O)[C@H](CO)NC(=O)[C@@H](NC(=O)[C@H](Cc1ccccc1)NC(=O)[C@@H](NC(=O)CNC(=O)[C@H](CCC(N)=O)NC(=O)C(C)(C)NC(=O)[C@@H](N)Cc1ccc(O)cc1)[C@@H](C)O)[C@@H](C)O)C(C)C)C(=O)N[C@@H](CCCNC(=N)N)C(=O)N[C@@H](C)C(N)=O [Compound 3] (HELM PEPTIDE1{Y.[Aib].Q.G.T.F.T.S.D.Y.S.K.Y.L.D.S.K.A.A.H.D.F.V.E.W.L.L.R.A.[am]}$$$$V2.0)		0.015			0.022	0.022	0.13	0.015

Reference: patent US10131702B2, “Glucagon-GLP-1-GIP triple agonist compounds” (priority 2013, dated 2018)
